# Data: article PMC7004565, “Nucleotide inhibition of the pancreatic ATP-sensitive K^+ channel explored with patch-clamp fluorometry” (eLife, 2020)
# Experiments:
# Kir6.2-GFP + SUR1 [1] = molecular target: T1, Kir6.2-GFP + SUR1 (Homo sapiens, UniProt Q14654); assay: Current inhibition in excised inside-out patches (patch-clamp fluorometry); format: biochemical; design: full length, fully ANAP-labelled Kir6.2 protein was produced and successfully trafficked to the membrane in the presence of SUR1; expressed in transfected cells; host or cells: HEK-293T
# Procedure: (§1) Currents were measured from patches from cells expressing KATP that were excised in the absence of Mg^2+. Under such conditions, nucleotides can bind to both sites on SUR1, but no activation occurs, allowing inhibitory currents to be measured in isolation ([Gribble et al., 1998]; [Ueda et al., 1999]; [Puljung et al., 2019]).
# Currents were measured as described above.
# Kir6.2-GFP + SUR1 [2] = molecular target: T1, Kir6.2-GFP + SUR1; assay: Current inhibition in excised inside-out patches; format: biochemical; design: ANAP labelling is specific and only full-length Kir6.2 is expressed at the cell membrane; expressed in transfected cells; host or cells: HEK-293T
# Procedure: as §1
# Kir6.2-GFP (no SUR1) = molecular target: T2, Kir6.2-GFP (no SUR1) (Homo sapiens, UniProt Q14654); assay: Current inhibition in excised inside-out patches; format: biochemical
# T2 construct: ANAP labelling is specific and only full-length Kir6.2 is expressed at the cell membrane; expressed in transfected cells; host or cells: HEK-293T
# T2 sequence (Q14654 1-390): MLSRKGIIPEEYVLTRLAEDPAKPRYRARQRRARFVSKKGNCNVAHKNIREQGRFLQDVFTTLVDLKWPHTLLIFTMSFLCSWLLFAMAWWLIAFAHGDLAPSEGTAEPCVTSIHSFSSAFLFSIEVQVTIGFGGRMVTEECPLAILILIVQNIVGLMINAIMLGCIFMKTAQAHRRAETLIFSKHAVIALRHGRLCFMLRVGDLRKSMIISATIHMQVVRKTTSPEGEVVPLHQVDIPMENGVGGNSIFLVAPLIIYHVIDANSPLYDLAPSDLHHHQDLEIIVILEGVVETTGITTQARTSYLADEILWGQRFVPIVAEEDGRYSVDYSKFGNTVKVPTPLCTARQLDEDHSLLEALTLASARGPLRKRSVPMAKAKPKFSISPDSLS
# Procedure: as §1
# Kir6.2*,C166S-GFP + SUR1 = Kir6.2*,C166S-GFP + SUR1 (Homo sapiens, UniProt Q14654, C166S); assay: Current inhibition in excised inside-out patches (patch-clamp fluorometry)
# wild-type Kir6.2 + SUR1 = tested on: wild-type Kir6.2 + SUR1; design: method as in Proks et al., 2010; Vedovato et al., 2015; details: MWC-type model, fits to published data; ref Proks et al., 2010; Vedovato et al., 2015; cited from earlier work
# [3] = tested on: second nucleotide binding site of SUR1; design: method as in Puljung et al., 2019; details: ref Puljung et al., 2019, cited from earlier work
# [4] = excised patches, Hill fit with 1-Imax set to 0, n = 3
# [5] = binding to stimulatory second nucleotide binding site of SUR1
# T1 sequence (Q09428 whole entry partner, one chain of several): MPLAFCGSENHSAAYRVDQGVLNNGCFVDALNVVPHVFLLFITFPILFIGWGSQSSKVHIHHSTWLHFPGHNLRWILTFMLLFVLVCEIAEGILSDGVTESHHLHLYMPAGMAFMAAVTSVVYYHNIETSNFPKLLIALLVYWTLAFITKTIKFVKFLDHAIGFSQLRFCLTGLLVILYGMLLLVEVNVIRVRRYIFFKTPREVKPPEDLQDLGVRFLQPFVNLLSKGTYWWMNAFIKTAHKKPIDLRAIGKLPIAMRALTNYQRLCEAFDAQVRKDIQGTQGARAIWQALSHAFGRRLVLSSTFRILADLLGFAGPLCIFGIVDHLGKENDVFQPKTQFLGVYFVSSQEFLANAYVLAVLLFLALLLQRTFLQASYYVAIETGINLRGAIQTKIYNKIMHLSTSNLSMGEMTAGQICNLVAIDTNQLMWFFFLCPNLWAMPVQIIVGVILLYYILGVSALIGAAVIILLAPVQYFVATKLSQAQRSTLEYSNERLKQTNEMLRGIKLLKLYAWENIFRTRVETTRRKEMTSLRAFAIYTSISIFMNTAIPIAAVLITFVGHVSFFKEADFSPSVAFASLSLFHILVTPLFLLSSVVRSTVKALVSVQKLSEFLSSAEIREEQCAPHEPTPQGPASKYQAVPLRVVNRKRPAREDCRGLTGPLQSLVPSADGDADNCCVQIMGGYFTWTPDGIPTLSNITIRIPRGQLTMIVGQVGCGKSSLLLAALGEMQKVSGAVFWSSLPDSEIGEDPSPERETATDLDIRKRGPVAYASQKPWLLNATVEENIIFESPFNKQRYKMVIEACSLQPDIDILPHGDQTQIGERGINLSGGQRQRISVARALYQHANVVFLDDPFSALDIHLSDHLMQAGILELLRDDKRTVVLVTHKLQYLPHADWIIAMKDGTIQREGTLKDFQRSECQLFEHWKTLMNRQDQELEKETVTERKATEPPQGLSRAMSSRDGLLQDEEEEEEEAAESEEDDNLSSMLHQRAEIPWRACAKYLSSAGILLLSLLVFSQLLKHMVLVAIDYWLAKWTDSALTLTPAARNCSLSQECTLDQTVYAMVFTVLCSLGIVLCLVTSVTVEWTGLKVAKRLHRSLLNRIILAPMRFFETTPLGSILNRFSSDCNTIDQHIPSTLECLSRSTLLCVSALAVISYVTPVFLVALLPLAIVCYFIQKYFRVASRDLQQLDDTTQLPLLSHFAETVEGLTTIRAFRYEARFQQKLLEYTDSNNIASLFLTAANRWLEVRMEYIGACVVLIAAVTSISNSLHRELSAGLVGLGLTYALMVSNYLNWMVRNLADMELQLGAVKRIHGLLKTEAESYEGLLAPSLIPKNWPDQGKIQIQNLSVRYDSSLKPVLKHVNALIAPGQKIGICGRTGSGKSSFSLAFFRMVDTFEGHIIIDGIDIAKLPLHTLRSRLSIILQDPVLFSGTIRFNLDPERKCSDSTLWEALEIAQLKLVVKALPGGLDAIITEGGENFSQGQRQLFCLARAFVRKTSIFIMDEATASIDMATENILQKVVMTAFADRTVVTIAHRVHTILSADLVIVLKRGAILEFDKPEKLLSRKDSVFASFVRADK
# Sequence of Kir6.2*,C166S-GFP + SUR1 (Q14654 whole entry C166S): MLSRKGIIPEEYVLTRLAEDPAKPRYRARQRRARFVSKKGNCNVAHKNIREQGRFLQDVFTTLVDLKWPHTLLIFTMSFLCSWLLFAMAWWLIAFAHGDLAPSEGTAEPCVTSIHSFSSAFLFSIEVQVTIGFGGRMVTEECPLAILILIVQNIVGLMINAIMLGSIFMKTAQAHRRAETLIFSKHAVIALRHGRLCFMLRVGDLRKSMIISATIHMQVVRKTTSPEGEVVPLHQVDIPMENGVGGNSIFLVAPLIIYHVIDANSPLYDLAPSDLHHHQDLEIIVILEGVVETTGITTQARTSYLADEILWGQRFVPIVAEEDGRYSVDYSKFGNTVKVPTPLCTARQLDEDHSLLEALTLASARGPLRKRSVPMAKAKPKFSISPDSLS
# Sequence of Kir6.2*,C166S-GFP + SUR1 (Q09428 whole entry partner): as the sequence (Q09428 whole entry partner, one chain of several) above
compound,measurement,setting,value
Nc1ncnc2c1ncn2[C@@H]1O[C@H](COP(=O)(O)OP(=O)(O)OP(=O)(O)O)[C@@H](O)[C@H]1O [ATP],h (Hill coefficient) current inhibition,"Kir6.2-GFP + SUR1 [1]; excised inside-out patches, Mg2+-free, Hill fit",1.42
same,h (Hill coefficient) current inhibition,"Kir6.2-GFP + SUR1 [2]; Mg2+-free, Hill fit",1.28
same,h (Hill coefficient) current inhibition,"Kir6.2-GFP (no SUR1); excised inside-out patches, no SUR1, Mg2+-free, Hill fit",1.15
same,current inhibition at 10 mM,"Kir6.2*,C166S-GFP + SUR1; 10 mM ATP, excised patch",only partial inhibition
same,D,wild-type Kir6.2 + SUR1,0.03
same,KA,wild-type Kir6.2 + SUR1,30000 M⁻¹
CCCCNC(=O)NS(=O)(=O)c1ccc(C)cc1 [tolbutamide],inhibition at 100 µM,"Kir6.2-GFP + SUR1 [1]; 100 µM tolbutamide, excised inside-out patches, n = 4",57.7%
same,inhibition at 100 µM,"Kir6.2-GFP + SUR1 [2]; 100 µM tolbutamide, n = 3",46.5%
same,current inhibition by tolbutamide,"Kir6.2-GFP (no SUR1); 100 µM tolbutamide, absence of SUR1, n = 5",not affected
CCN(CC)CC [triethylamine],h (Hill coefficient) current inhibition,Kir6.2-GFP + SUR1 [1]; [4],0.87
same,IC50,"Kir6.2-GFP + SUR1 [1]; excised patches, Hill fit with 1-Imax set to 0, n = 3, read-out: IC50 current inhibition",63.1 mM
same,h (Hill coefficient) current inhibition,"Kir6.2*,C166S-GFP + SUR1; [4]",1.12
MgTNP-ADP,KA,[3]; [5],58000 M⁻¹
same,Kd,[3]; [5],17 µM
same,E (factor by which binding to SUR1 stabilised channel opening),[3]; currents and binding measured in separate preparations,2.2
